Consider two molecules from patent US11229614B2, “Supramolecular hydrogel applications to the carotid bodies to treat hypertension and sleep apnea in obesity” (THE JOHNS HOPKINS UNIVERSITY, priority 2017, dated 2022).

Read-outs that look alike come from different tables or passages of the source.

The subject of one data set is C57BL/6J mice. The format is in vivo. The method, then: Blood pressure telemetry (FIG. 2) and sleep studies in mice. […] Then blood pressure was measured at baseline (Day 0). The leptin osmotic pump was implanted SC to deliver 120 μg/day of the hormone, which increased leptin levels to 40-50 ng/ml which corresponded to plasma leptin levels in severely obese mice. Blood pressure measured after 2 days of leptin infusion (Day 2) followed by removal of the osmotic pump. On Day 5, the carotid artery bifurcation was exposed and co-assembled FTY720-PA filamentous nanostructures were applied bilaterally (5 μg/side). […] The leptin osmotic pump was reinserted on Day 9 and blood pressure was measured after two days of leptin infusion on Day 11. The pump was removed on Day 12 and reinserted on Day 20 followed by blood pressure measurement on Day 22. […] Leptin increased mean arteria blood pressure by 13±6 mm Hg and this effect was abolished by FTY720. […] Allowing 10% attrition rate, it will require 28 male (14 DIO and 14 lean) and 28 female C57BL/6J mice (14 DIO and 14 lean).

Data set [1] is described as follows: Maximum solubility at pH 7.4. In kind it is physicochemical.
For data set [2] the following is noted: mice; cited from earlier work.
The conditions of data set [3]: humans; cited from earlier work.

As to “Leptin: hormone delivered by SC osmotic pump to induce hypertension”, the “increase of mean arterial blood pressure” value with C57BL/6J mice (leptin infusion) stood at 13±6 mm Hg.
As a reminder, the solubility is the concentration that dissolves in the medium under given conditions. Higher therefore signals a readily soluble substance. The term half-life denotes the time in which the quantity being followed falls by half. `CCCCCCCCc1ccc(CCC(N)(CO)CO)cc1.Cl` [FTY720, 2-Amino-2-[2-(4-octyl-phenyl)-ethyl]-propane-1,3-diol hydrochloride] yielded a solubility in data set [1] of 81 µM. Also, the half-life was 9 h in data set [2] and 170 h in data set [3]. Moreover, the leptin-induced hypertension result in the data set on C57BL/6J mice (FTY720 in Matrigel at 0.3 mg/kg/day applied to CB (FIG. 2)) and in the data set on C57BL/6J mice (administered to CB locally) was “abolished leptin-induced hypertension” throughout. Moreover, the “effect on leptin-induced increase of mean arterial blood pressure” value in the data set with C57BL/6J mice (mouse, in vivo) is “abolished”.
